Assay [1] concerns isolated, retrogradely perfused rat hearts. Put plainly: Global ischemia (35 min)-reperfusion (120 min) in isolated, retrogradely perfused (Langendorff) rat hearts; peptide postconditioning. As to conditions: for Infarct size (% IS/AAR): 15 min at onset of reperfusion; for LVD AUC / LVD-lowering effect in the presence of exendin(9-39): N-Ac-GLP-1(7-34)amide 0.3 nM + exendin(9-39) 3 nM versus control ischemia; for Left ventricle developed pressure (LVDEV) AUC / Rate-pressure product (RPP) AUC / Left ventricle diastolic pressure (LVD) AUC over last 60 min of reperfusion / post-ischemic diastolic contracture: postconditioning 0.3 nM versus control ischemia. Here is the method:
Global ischemia (35 min)-reperfusion (120 min) was applied in isolated, retrogradely perfused rat hearts. Peptides were present for 15 min at the onset of reperfusion. Cardiac function parameters (beats per minute, left ventricle developed and diastolic pressures, rate-pressure product) throughout the course of the perfusion were measured. Infarct size was determined on collected hearts by 2,3,5-tripehyltetrazolium chloride staining and planimetry.
(§1) For anesthesia, a mixture of midazolam (2.5 mg/kg), fluanisone (2.5 mg/kg) and fentanyl citrate (0.08 mg/kg) was administered subcutaneously. Heparin ([…]. per kg) was administered through the femoral vein. The animals were ventilated via a tracheotomy with a mixture of 35% O2/65% N2 and the chest cavity was opened. The excised heart was immediately placed in an ice-cold Krebs Henseleit buffer. The heart was quickly mounted onto the Langendorff perfusion system (ADInstruments, UK) and perfused with modified Krebs-Henseleit solution (NaCl 118.5 mM, KCl 4.7 mM, NaHCO3 25.0 mM, MgSO4 1.2 mM, CaCl2 1.4 mM, glucose 11.1 mM), equilibrated to pH 7.4 with a gas mixture of 5% CO2/95% 02, at 37° C. The left auricle was removed and a size 7 balloon (ADInstruments) was inserted into the left ventricle through the left atrium and adjusted to a diastolic pressure of 4-10 mmHg. Perfusion pressure was set to 70 mm Hg and maintained at this average value by a servo control system (ML175 STH Pump Controller, ADInstruments) continually adjusting the peristaltic pump revolutions according to flow resistance. The hearts were allowed to stabilize for 20 min prior to recording of left ventricle functional parameter baseline values over the next 10 min: pressure (systolic, LVS; diastolic, LVD; developed, LVDEV=LVS-LVD), beats per minute (BPM) and rate-pressure product (RPP). Power Lab 8/30 system and Chart 5 Pro Software from ADInstruments were used for these recordings.
(§2) Hearts were also excluded if ventricular fibrillation lasting more than 5 min occurred during reperfusion.
FIG. 1 outlines the time course for normoxic (A) and ischemia-reperfusion (B) experiments. The experimental groups were: control normoxia, no peptide addition; normoxia, N—Ac-GLP-1(7-34)amide 0.3 nM; control ischemia-reperfusion (IR), no peptide addition; IR, N—Ac-GLP-1(7-34)amide 0.3 nM; IR, N—Ac-GLP-1(7-34)amide 0.3 nM+exendin(9-39) 3 nM; IR, exendin(9-39) 3 nM. […] “Stab” indicates 30 min stabilization period. When present, peptides were added for 15 min, from the beginning of the last 120 min of perfusion (A) or reperfusion (B). Total perfusion time was always 185 min, consisting of 30 min stabilization, followed by 155 min of normoxic perfusion (FIG. 1A) or 35 min global ischemia-120 min reperfusion (FIG. 1B).
Following reperfusion, the hearts were processed for 2, 3, 5-triphenyltetrazolium chloride staining and planimetric infarct size determination, as described earlier. Quantitation was done by an investigator blinded to the experimental conditions. Infarct size (IS) was expressed as a percentage of total ischemic area at risk (AAR) (% IS/AAR).
All values are presented as means, with SEM given in parantheses. One-way ANOVA with Dunnett's post hoc test (GraphPad Prism® 5) was used to compare treatment results to control conditions. P<0.05 was considered significant.

A further assay relates to in vitro rat heart. As to conditions: cited from earlier work.
The subject of assay [2] is isolated, retrogradely perfused rat hearts. The assay can be described thus: Normoxic perfusion of isolated rat hearts (no preceding ischemia). As to conditions: 0.3 nM between 35 and 50 min of perfusion. The protocol:
as §1, §2
FIG. 1 outlines the time course for normoxic (A) and ischemia-reperfusion (B) experiments. The experimental groups were: control normoxia, no peptide addition; normoxia, N—Ac-GLP-1(7-34)amide 0.3 nM; control ischemia-reperfusion (IR), no peptide addition; IR, N—Ac-GLP-1(7-34)amide 0.3 nM; IR, N—Ac-GLP-1(7-34)amide 0.3 nM+exendin(9-39) 3 nM; IR, exendin(9-39) 3 nM. […] “Stab” indicates 30 min stabilization period. […]

Where [3] appears, read: listed as N—Ac-GLP-1(7-34)-amide.
[4] abbreviates: listed as N—Ac-GLP-1-(7-34)amide.

“Also recorded” adds a separate entry of the source. Like-named read-outs stand apart in the source and are kept apart here. Where no end group is shown, it is not given here.

These results are taken from patent publication US20160207970A1, “POLYPEPTIDE FOR THE PROTECTION AGAINST HEART ISCHEMIA-REPERFUSION INJURY” (Pharis Biotech GmbH, priority 2011, published 2016).

As to exendin(9-39) [reference compound], the “LVD AUC over last 60 min of reperfusion” value in assay [1] (exendin(9-39) 3 nM alone versus control ischemia) was “not affected”. In addition, the “Infarct size (% IS/AAR)” value in assay [1] (exendin(9-39) 3 nM alone, mean) worked out at 21.7%. Moreover, the “Effect on infarct-limiting actions of GLP-1” value in the assay with in vitro rat heart (exendin(9-39) given with GLP-1) is given as “abolish”.
Consider “N—Ac-GLP-1(7-34)amide (Ac-HAEGTFTSDVSSYLEGQAAKEFIAWLVK-NH2) [N-terminally acetylated, C-terminally truncated analogue of GLP-1]”, for which the “Functional heart parameters (BPM, LVDEV, LVD, RPP) under normoxic perfusion” value in assay [2] was “not affected”; in assay [2] (setting [3]), “nor did it affect”; in assay [2] (setting [4]) it was “No effect”. In addition, the “Trend towards LVDEV improvement in the presence of exendin(9-39)” value in assay [1] (N-Ac-GLP-1(7-34)amide 0.3 nM + exendin(9-39) 3 nM) is on record as “abolished”. Further, the figures for the “LVD AUC / LVD-lowering effect in the presence of exendin(9-39)” value in assay [1] and in assay [1] (setting [4]) were “blocked” and “not affected”, respectively. For the same substance, the “Infarct size (% IS/AAR)” value in assay [1] (N-Ac-GLP-1(7-34)amide 0.3 nM in the presence of exendin(9-39) 3 nM, mean) was found to be 21.4%. Also, the “Infarct size-limiting action in the presence of GLP-1 receptor antagonist exendin(9-39)” value in assay [1] (co-administration of exendin(9-39) 3 nM) is on record as “abolished”. Also, the “Infarct size (IS) as percentage of area at risk (% IS/AAR)” value in assay [1] (peptide 0.3 nM for 15 min at onset of reperfusion, mean, control ischemia-reperfusion without peptide 24.8% / 28.4%) came to 11.4%. In addition, the “Left ventricle developed pressure (LVDEV) AUC” value was “did not affect” in assay [1], “no significant effect” in assay [1] (setting [3]) and “did not increase” in assay [1] (setting [4]). The “Rate-pressure product (RPP) AUC” value in assay [1] is given as “did not affect”; in assay [1] (setting [3]), “no significant effect”; in assay [1] (setting [4]), “did not increase”. Besides, the “Left ventricle diastolic pressure (LVD) AUC over last 60 min of reperfusion / post-ischemic diastolic contracture” value is given as “diminished diastolic hypercontracture; also recorded: significant decrease” in assay [1] (P<0.05); “diminished significantly” in assay [1] (P<0.05, listed as N—Ac-GLP-1(7-34)-amide); “significantly decreased” in assay [1] (P<0.05, listed as N—Ac-GLP-1-(7-34)amide). Besides, the “Relative decrease in infarct size” value in assay [1] (postconditioning 0.3 nM versus control ischemia-reperfusion) is on record as “approximately 54%”. Moreover, the “Effect on infarct size (in words)” value in assay [1] (postconditioning 0.3 nM versus no peptide, P<0.05) is on record as “diminished infarct size; also recorded: significant decrease”.
“GLP-1 (HAEGTFTSDVSSYLEGQAAKEFIAWLVKGR; ends and bridges not checked; UniProt P01275 98-127, looked up) [natural hormone GLP-1]”: the “Effect on myocardial infarction” value is “did not decrease” in the assay with in vitro rat heart (GLP-1 alone) and “significant reduction” with in vitro rat heart (GLP-1 in combination with the GLP-1 breakdown inhibitor valine pyrrolidide (VP)).
